Data as given in ChEMBL document CHEMBL4371082.
Active and inactive are the calls of the source.

Experiments:
[1] = Antioxidant activity assessed as DPPH free radical scavenging activity at 20 uM; assay type: functional
[2] = Antioxidant activity assessed as ABTS radical scavenging activity at 20 uM measured at 30 sec interval over 60 mins; assay type: functional
Saccharomyces cerevisiae [3] = assay: Protection against copy of c-myc-tagged human bax gene induced mitochondrial dysfunction in yeast BC300 assessed as prevention of mitochondrial membrane potential loss in SG liquid medium by JC-10 dye based fluorescence assay; assay type: functional, organism-based
Saccharomyces cerevisiae [4] = assay: Protection against copy of c-myc-tagged human bax gene induced oxidative stress in yeast BC300 assessed as reactive oxygen species level in SG liquid medium by dihydroethidium dye based fluorescence assay; assay type: functional, organism-based
Saccharomyces cerevisiae [5] = assay: Protection against 3-copies of HA-tagged human alpha-syn gene induced oxidative stress in yeast BC300 assessed as reduction in reactive oxygen species level in SG solid agar medium by dihydroethidium dye based fluorescence assay; assay type: functional, organism-based
Saccharomyces cerevisiae [6] = assay: Protection against 3-copies of HA-tagged human alpha-syn gene induced mitochondrial dysfunction in yeast BC300 assessed as prevention of mitochondrial membrane potential loss in SG solid agar medium by JC-10 dye based fluorescence assay; assay type: functional, organism-based

Measured: Activity

O=C1O[C@H]([C@@H](O)CO)C(O)=C1O
active: [1] | [2]

COc1ccc([C@@H](O)CNC(=O)/C=C/c2ccccc2)cc1
active: all assays above
